Test results as given in patent publication US10555987B2, “GHRH agonists for the treatment of ischemic disorders” (UNIVERSITY OF MIAMI, priority 2012, dated 2020).
Values joined by “and” are separate entries in the source; they are usually repeats but may differ in a detail not shown here. Equal entries are not always repeated. Non-standard residues stand in square brackets, D forms with d. Residues, ends and D or L forms follow the SMILES beside them. *: point of attachment. Desaminotyrosyl = O=C(CCc1ccc(O)cc1)*; NMeY = CN[C@@H](Cc1ccc(O)cc1)C(=O)O; Agmatine = N=C(N)NCCCCN*; Nle = CCCC[C@H](N)C(=O)O; Orn = NCCC[C@H](N)C(=O)O; Abu = CC[C@H](N)C(=O)O

Tests used:
GH release [1] = assay: GH releasing potency in vivo, subcutaneous administration (Example 14, Table 12); design: species or system rat; conditions: for Serum GH level at selected time after injection (ng/ml), 0 min / Serum GH level at selected time after injection (ng/ml), 15 min / Serum GH level at selected time after injection (ng/ml), 30 min: male rats, dose 3 μg/kg, mean ± SEM; for Serum GH level at selected time after injection (ng/ml), 0 min / Serum GH level at selected time after injection (ng/ml), 15 min / Serum GH level at selected time after injection (ng/ml), 30 min / Relative potency compared to GHRH(1-29), 15 min / Relative potency compared to JI-38, 15 min / Relative potency compared to GHRH(1-29), 30 min / Relative potency compared to JI-38, 30 min: s.c.
How it was run: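 Potency is expressed relative to GHRH(1-29)NH2 and JI-38 (each = 1), via equivalent GHRH(1-29)NH2 dose read from a standard curve. Peptides in 5% mannitol given i.v. or s.c. to anaesthetised male Sprague-Dawley rats (200-250 g); serum GH measured by ELISA at selected times.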

[2] = system: myocardial infarction (Fisher-344 rats); assay: Serial echocardiography after MI, compared to JI-38 (Example 15, Table 15); assay type: in vivo, rat; design: key to LVEDD: Left Ventricular End Diastolic Diameter / LVESD: Left Ventricular End Systolic Diameter / VD: Ventricular Diastole / VS: Ventricular Systole / EF: Ejection Fraction / FS: Fraction Shortening: ↓: downward arrow denotes lower than JI-38; ↑: upward arrow denotes greater than JI-38; =denotes same as JI-38; ⬇⬇: double arrow denotes greater effect; ⬆⬆: double arrow denotes greater effect; conditions: for EF: Ejection Fraction / FS: Fraction Shortening / LVEDD: Left Ventricular End Diastolic Diameter / LVESD: Left Ventricular End Systolic Diameter / VD: Ventricular Diastole / VS: Ventricular Systole: in comparison to JI-38
How it was run: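 Female 6-month-old Fisher-344 rats with permanent left coronary artery ligation received placebo, JI-38 or GHRH agonists subcutaneously twice daily from 2 h post-surgery (10 per group). Under 2% isoflurane, M-mode LVEDD, LVESD and FS plus long-axis EF were measured at baseline, 2 days, 1, 2 and 4 weeks.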

GH release [3] = assay: In vivo endocrine activity, GH release after subcutaneous administration (Table 9); conditions: rat; for GH releasing potency relative to JI-38 (=1): subcutaneous (s.c.) injection
Procedure: Subcutaneous Administration. Adult male rats were used and anesthetized with pentobarbital (6 mg/100 g, b.w.), by i.p. injection. […] Blood samples were taken from the jugular vein 5, 15 and/or 30 minutes after the injection. The blood samples were centrifuged, plasma was removed and the GH level was measured byELISA. The results are summarized in terms of potency in Table 9.

[4] = system: myocardial infarction (Fisher-344 rats); assay: Hemodynamic analysis (pressure-volume loops), body and heart weight after MI, compared to JI-38 (Example 15, Table 16); assay type: in vivo, rat; design: key to ESP (End-Systolic Pressure) / EDP (End-Diastolic Pressure) / ESV (End-Systolic Volume) / PRSW (Preload Recruitable Stroke Work) / Ees (End-systolic Elastance) / dP/dt max (peak rate of the pressure rise) / dP/dt max_EDV / dP/dt min / TAU (relaxation time constant calculated by Weiss method) / SV (Stroke Volume) / CO (Cardiac Output) / SW (Stroke Work) / EF / Ea/Ees / Ea (arterial Elastance): ↓: downward arrow denotes lower than JI-38; ↑: upward arrow denotes greater than JI-38; =denotes same as JI-38; ⬇⬇: double arrow denotes greater effect; ⬆⬆: double arrow denotes greater effect; conditions: rat MI model, s.c. twice daily; pressure-volume loops; expressed in comparison to JI-38
How it was run: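 Female 6-month-old Fisher-344 rats after permanent left coronary ligation received GHRH agonists subcutaneously twice daily from 2 h post-surgery (n=10/group). Under ketamine/xylazine/acepromazine anesthesia, LV pressure-volume loops were recorded via carotid micromanometer catheter, calibrated by hypertonic saline bolus and cuvette method; echocardiography also serial.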

Structure (SMILES): CCCC[C@H](NC(=O)[C@@H](NC(=O)[C@H](CC(=O)O)NC(=O)[C@H](CCC(N)=O)NC(=O)[C@H](CC(C)C)NC(=O)[C@H](CC(C)C)NC(=O)[C@H](CCCN)NC(=O)[C@H](CCCNC(=N)N)NC(=O)[C@H](C)NC(=O)[C@H](CO)NC(=O)[C@H](CC(C)C)NC(=O)[C@H](CCC(N)=O)NC(=O)[C@H](CC)NC(=O)[C@H](CC(C)C)NC(=O)[C@@H](NC(=O)[C@H](CCCN)NC(=O)[C@H](CCCNC(=N)N)NC(=O)[C@H](Cc1ccc(O)cc1)NC(=O)[C@H](CO)NC(=O)[C@H](CCC(N)=O)NC(=O)[C@@H](NC(=O)[C@H](Cc1ccccc1)NC(=O)[C@@H](NC(=O)[C@H](C)NC(=O)[C@H](CC(=O)O)NC(=O)[C@H](C)NC(=O)CCc1ccc(O)cc1)[C@@H](C)CC)[C@@H](C)O)C(C)C)[C@@H](C)CC)C(=O)N[C@@H](CC(=O)O)C(=O)NCCCCNC(=N)N [JI-38, [Dat^1, Gln^8, Orn^12,21, Abu^15, Nle^27, Asp^28, Agm^29]hGHRH(1-29)NH2, reference compound] (Desaminotyrosyl-ADAIFTQSYR[Orn]VL[Abu]QLSAR[Orn]LLQDI[Nle]D-Agmatine)
- Serum GH level at selected time after injection (ng/ml), 0 min (GH release [1]): 33.2 ± 2.8 ng/mL
- Serum GH level at selected time after injection (ng/ml), 15 min (GH release [1]): 230.0 ± 15.1 ng/mL
- Serum GH level at selected time after injection (ng/ml), 30 min (GH release [1]): 128.7 ± 13.3 ng/mL
- Relative potency compared to GHRH(1-29), 15 min (GH release [1]): 63.1
- Relative potency compared to JI-38, 15 min (GH release [1]): 1.00
- Relative potency compared to GHRH(1-29), 30 min (GH release [1]): 111.8
- Relative potency compared to JI-38, 30 min (GH release [1]): 1.00

Structure (SMILES): CCCC[C@H](NC(=O)[C@@H](NC(=O)[C@H](CC(=O)O)NC(=O)[C@H](CCC(N)=O)NC(=O)[C@H](CC(C)C)NC(=O)[C@H](CC(C)C)NC(=O)[C@H](CCCN)NC(=O)[C@H](CCCNC(=N)N)NC(=O)[C@H](C)NC(=O)[C@H](CO)NC(=O)[C@H](CC(C)C)NC(=O)[C@H](CCC(N)=O)NC(=O)[C@H](CC)NC(=O)[C@H](CC(C)C)NC(=O)[C@@H](NC(=O)[C@H](CCCN)NC(=O)[C@H](CCCNC(=N)N)NC(=O)[C@H](Cc1ccc(O)cc1)NC(=O)[C@H](CO)NC(=O)[C@H](CCC(N)=O)NC(=O)[C@@H](NC(=O)[C@H](Cc1ccccc1)NC(=O)[C@@H](NC(=O)[C@H](C)NC(=O)[C@H](CC(=O)O)NC(=O)[C@H](C)NC(=O)[C@H](Cc1ccc(O)cc1)NC)[C@@H](C)CC)[C@@H](C)O)C(C)C)[C@@H](C)CC)C(=O)N[C@@H](CC(=O)O)C(=O)NCCCCNC(=N)N [Peptide P-20356, [N—Me-Tyr^1, Gln^8, Orn^12, Abu^15, Orn^21, Nle^27, Asp^28, Agm^29]hGHRH(1-29) NH2] (H-[NMeY]ADAIFTQSYR[Orn]VL[Abu]QLSAR[Orn]LLQDI[Nle]D-Agmatine)
- cardiac dimensions (LVEDD and LVESD) ([2]; after MI): reduced cardiac dimensions
- cardiac performance (EF and FS) ([2]; after MI): substantial improvement on cardiac performance
- EF: Ejection Fraction [2]: =
- FS: Fraction Shortening [2]: ⬆⬆
- LVEDD: Left Ventricular End Diastolic Diameter [2]: ⬇⬇
- LVESD: Left Ventricular End Systolic Diameter [2]: ⬇⬇
- VD: Ventricular Diastole [2]: =
- VS: Ventricular Systole [2]: =
- Stimulation of growth hormone levels after subcutaneous administration (in words) (GH release [3]; s.c.): stimulated greater growth hormone levels than hGHRH or JI-38
- GH releasing potency relative to JI-38 (=1) (GH release [3]; 15 min after): 1.72
- GH releasing potency relative to JI-38 (=1) (GH release [3]; 30 min after): 1.09
- potency as compared to JI-38 in both i.v. and s.c. tests (GH release [1]; both i.v. and s.c. tests): increased potency as compared to JI-38
- Serum GH level at selected time after injection (ng/ml), 0 min (GH release [1]): 25.3 ± 3.9 ng/mL
- Serum GH level at selected time after injection (ng/ml), 15 min (GH release [1]): 305.4 ± 40.0 ng/mL
- Serum GH level at selected time after injection (ng/ml), 30 min (GH release [1]): 152.4 ± 21.8 ng/mL
- Relative potency compared to GHRH(1-29), 15 min (GH release [1]): 91.2
- Relative potency compared to JI-38, 15 min (GH release [1]; listed as MR-356): 1.4 and 1.45
- Relative potency compared to GHRH(1-29), 30 min (GH release [1]): 150.9
- Relative potency compared to JI-38, 30 min (GH release [1]; listed as MR-356): 1.4 and 1.35
- CO (Cardiac Output) [4]: =
- EDP (End-Diastolic Pressure) [4]: =
- EF [4]: =
- ESP (End-Systolic Pressure) [4]: =
- ESV (End-Systolic Volume) [4]: =
- Ea (arterial Elastance) [4]: ↑
- Ea/Ees [4]: =
- Ees (End-systolic Elastance) [4]: =
- PRSW (Preload Recruitable Stroke Work) [4]: =
- SV (Stroke Volume) [4]: =
- SW (Stroke Work) [4]: =
- TAU (relaxation time constant calculated by Weiss method) [4]: =
- dP/dt max (peak rate of the pressure rise) [4]: =
- dP/dt max_EDV [4]: =
- dP/dt min [4]: =

Structure (SMILES): CCCC[C@H](NC(=O)[C@@H](NC(=O)[C@H](CC(=O)O)NC(=O)[C@H](CCC(N)=O)NC(=O)[C@H](CC(C)C)NC(=O)[C@H](CC(C)C)NC(=O)[C@H](CCCN)NC(=O)[C@H](CCCNC(=N)N)NC(=O)[C@H](C)NC(=O)[C@H](CO)NC(=O)[C@H](CC(C)C)NC(=O)[C@H](CCC(N)=O)NC(=O)[C@H](CC)NC(=O)[C@H](CC(C)C)NC(=O)[C@@H](NC(=O)[C@H](CCCN)NC(=O)[C@H](CCCNC(=N)N)NC(=O)[C@H](Cc1ccc(O)cc1)NC(=O)[C@H](CO)NC(=O)[C@H](CCC(N)=O)NC(=O)[C@@H](NC(=O)[C@H](Cc1ccccc1)NC(=O)[C@@H](NC(=O)[C@H](C)NC(=O)[C@H](CC(=O)O)NC(=O)[C@@H](C)NC(=O)[C@H](Cc1ccc(O)cc1)NC)[C@@H](C)CC)[C@@H](C)O)C(C)C)[C@@H](C)CC)C(=O)N[C@@H](CC(=O)O)C(=O)NCCCCNC(=N)N [Peptide P-20361, [N—Me-Tyr^1, D-Ala^2, Gln^8, Orn^12, Abu^15, Orn^21, Nle^27, Asp^28, Agm^29] hGHRH (1-29)NH2] (H-[NMeY][dA]DAIFTQSYR[Orn]VL[Abu]QLSAR[Orn]LLQDI[Nle]D-Agmatine)
- EF: Ejection Fraction [2]: ↓
- FS: Fraction Shortening [2]: =
- LVEDD: Left Ventricular End Diastolic Diameter [2]: =
- LVESD: Left Ventricular End Systolic Diameter [2]: =
- VD: Ventricular Diastole [2]: =
- VS: Ventricular Systole [2]: ↑
- GH releasing potency relative to JI-38 (=1) (GH release [3]; 15 min after): 1.18
- GH releasing potency relative to JI-38 (=1) (GH release [3]; 30 min after): 1.50
- Serum GH level at selected time after injection (ng/ml), 0 min (GH release [1]): 46.1 ± 6.3 ng/mL
- Serum GH level at selected time after injection (ng/ml), 15 min (GH release [1]): 275.9 ± 46.4 ng/mL
- Serum GH level at selected time after injection (ng/ml), 30 min (GH release [1]): 142.6 ± 18.4 ng/mL
- Relative potency compared to GHRH(1-29), 15 min (GH release [1]): 80
- Relative potency compared to JI-38, 15 min (GH release [1]): 1.27
- Relative potency compared to GHRH(1-29), 30 min (GH release [1]): 134.1
- Relative potency compared to JI-38, 30 min (GH release [1]): 1.20
- CO (Cardiac Output) [4]: =
- EDP (End-Diastolic Pressure) [4]: ↑
- EF [4]: =
- ESP (End-Systolic Pressure) [4]: ↑
- ESV (End-Systolic Volume) [4]: ↑
- Ea (arterial Elastance) [4]: ↑
- Ea/Ees [4]: ↓
- Ees (End-systolic Elastance) [4]: ↑
- PRSW (Preload Recruitable Stroke Work) [4]: =
- SV (Stroke Volume) [4]: ↓
- SW (Stroke Work) [4]: ↓
- TAU (relaxation time constant calculated by Weiss method) [4]: ↑
- dP/dt max (peak rate of the pressure rise) [4]: =
- dP/dt max_EDV [4]: ↑
- dP/dt min [4]: =
